Experiments:
Type in all cases: in vivo
Galium aparine (GALAP) = experiment: greenhouse post-emergence herbicidal efficacy against GALAP; conditions: for Efficacy: 14 days after application
Method in brief: (§1)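 In the greenhouse, herbicidal compositions and their individual active ingredients are applied post-emergence at 300 L/ha. Damage is scored by eye against untreated controls on a 0–100% scale at 14 and 21 days.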

[1] = tested on: Amaranthus retroflexus (AMARE); experiment: greenhouse post-emergence herbicidal efficacy against AMARE
Protocol: (§2) All trials whose results are shown were conducted in a greenhouse by the methodology specified below. The effect of the inventive herbicidal compositions was examined on the following harmful plants 14 and 21 days after application:
(§3) Echinochloa crus-galli (ECHCG), Eleusine indica (ELEIN), Setaria viridis (SETVI), Amaranthus retroflexus (AMARE), Chenopodium album (CHEAL), Kochia scoparia (KCHSC), Solanum nigrum (SOLNI), Avena fatua (AVEFA), Bromus sterilis (BROST), Lolium multiflorum (LOLMU), Phalaris minor (PHAMI), Poa annua (POAAN), Galium aparine (GALAP), Matricaria inodora (MATIN) and Polygonum convolvulus (POLCO).
(§4) The harmful plant seeds were sown in pots (diameter 8 cm) with sandy loam soil and germinated under optimal conditions. The inventive herbicidal compositions or the active ingredients alone were applied post-emergence to the planted pots with a spray volume of 300 L/ha. The trial was conducted in a greenhouse under optimum growth conditions. The herbicidal effects were assessed visually by comparison of untreated and treated plants. The percentages mean: 0%=no effects, 100%=the plants die off completely). The percentages are used to calculate interactions between individual treatments and combination treatments according to S. R. Colby, Weeds 15, pages 20 to 22 (1967).
(§5) The abbreviations mean: • a.i.=active ingredient • E^C=expected value according to Colby (E^C=A+B−A×B/100) • Diff: =difference (%) of measured value from expected value (%) (measured value minus expected value)
(§6) Assessment: • measured value E is greater than E^C:->synergism (+ diff.) • measured value E equals E^C:->additive effect • measured value E is smaller than E^C:->antagonism(− diff.)

[2] = tested on: Echinochloa crus-galli (ECHCG); experiment: greenhouse post-emergence herbicidal efficacy against ECHCG
Method in brief: (§7)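 Percent control is a visual rating relative to untreated plants, taken 14 and 21 days after a 300 L/ha post-emergence spray of either the herbicidal compositions or the individual actives. Plants were grown from seed in 8 cm pots of sandy loam in the greenhouse.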

DIGSA = experiment: greenhouse post-emergence herbicidal efficacy against DIGSA
Protocol: as §2, §4, §5, §6

Eleusine indica (ELEIN) = experiment: greenhouse post-emergence herbicidal efficacy against ELEIN
Method in brief: as §7

Avena fatua (AVEFA) = experiment: greenhouse post-emergence herbicidal efficacy against AVEFA
Method in brief: as §1

[3] = tested on: Lolium multiflorum (LOLMU); experiment: greenhouse post-emergence herbicidal efficacy against LOLMU
Method in brief: as §1

[4] = tested on: Chenopodium album (CHEAL); experiment: greenhouse post-emergence herbicidal efficacy against CHEAL
Method in brief: as §7

Setaria viridis (SETVI) = experiment: greenhouse post-emergence herbicidal efficacy against SETVI
Method in brief: as §7

[5] = tested on: Polygonum convolvulus (POLCO); experiment: greenhouse post-emergence herbicidal efficacy against POLCO
Method in brief: as §1

Bromus sterilis (BROST) = experiment: greenhouse post-emergence herbicidal efficacy against BROST; conditions: 21 days after application
Method in brief: as §1

Phalaris minor (PHAMI) = experiment: greenhouse post-emergence herbicidal efficacy against PHAMI
Method in brief: as §1

Solanum nigrum (SOLNI) = experiment: greenhouse post-emergence herbicidal efficacy against SOLNI
Protocol: as §2, §3, §4, §5, §6

Kochia scoparia (KCHSC) = experiment: greenhouse post-emergence herbicidal efficacy against KCHSC
Protocol: as §2, §3, §4, §5, §6

[6] = tested on: Matricaria inodora (MATIN); experiment: greenhouse post-emergence herbicidal efficacy against MATIN; conditions: 14 days after application
Method in brief: as §1

Poa annua (POAAN) = experiment: greenhouse post-emergence herbicidal efficacy against POAAN
Method in brief: as §1

[7] = g of a.i./ha: A1-13 2.5, indaziflam 10
[8] = 21 days after application, dosage 10 g of a.i./ha
[9] = 14 days after application, 0.4 g of a.i./ha
[10] = 21 days after application, 0.4 g of a.i./ha
[11] = 14 days after application, 0.1 g of a.i./ha
[12] = 21 days after application, 0.1 g of a.i./ha
[13] = 21 days after application; 0.1 g of a.i./ha
[14] = 21 days after application; 0.4 g of a.i./ha
[15] = 14 days after application, 10 g of a.i./ha
[16] = 21 days after application, g of a.i./ha: A1-13 2.5, indaziflam 40
[17] = 21 days after application, g of a.i./ha: A1-13 2.5, mesosulfuron-methyl 10
[18] = 21 days after application, g of a.i./ha: A1-13 10, indaziflam 40
[19] = 21 days after application, g of a.i./ha: A1-13 10, mesosulfuron-methyl 10
[20] = g of a.i./ha: A1-13 10, indaziflam 10
[21] = 14 days after application, 2.5 g of a.i./ha
[22] = 14 days after application, 5 g of a.i./ha
[23] = 14 days after application, 20 g of a.i./ha
[24] = 21 days after application, 5 g of a.i./ha
[25] = 21 days after application, 20 g of a.i./ha
[26] = 21 days after application; 20 g of a.i./ha
[27] = 14 days after application; 5 g of a.i./ha
[28] = 14 days after application; 20 g of a.i./ha
[29] = 21 days after application; 5 g of a.i./ha
[30] = 14 days after application, 0.5 g of a.i./ha
[31] = 14 days after application, 2 g of a.i./ha
[32] = 21 days after application, 2 g of a.i./ha
[33] = 14 days after application, g of a.i./ha: A1-7 2.5, saflufenacil 2
[34] = 14 days after application, g of a.i./ha: A1-7 2.5, saflufenacil 8
[35] = 21 days after application, 0.5 g of a.i./ha

Cc1nnc(NC(=O)c2ccc(C(F)(F)F)c(S(C)(=O)=O)c2C)o1 [A1-13]
10%: Efficacy [1, 10] | Efficacy (Eleusine indica (ELEIN); [10]) | Efficacy (Eleusine indica (ELEIN); [14]) | Efficacy [4, 9] | Efficacy (Setaria viridis (SETVI); [9]) | Efficacy (Setaria viridis (SETVI); [10]) | Efficacy (Setaria viridis (SETVI); [14]) | Efficacy (Solanum nigrum (SOLNI); [11]) | Efficacy (Solanum nigrum (SOLNI); [10]) | Efficacy (Poa annua (POAAN); [17])
3%: Efficacy (Avena fatua (AVEFA); [18]) | Efficacy (Avena fatua (AVEFA); [19])
0%: Efficacy [1, 9] | Efficacy [2, 11] | Efficacy [2, 9] | Efficacy [2, 12] | Efficacy [2, 10] | Efficacy [2, 13] | Efficacy [2, 14] | Efficacy (DIGSA; [9]) | Efficacy (Eleusine indica (ELEIN); [12]) | Efficacy (Eleusine indica (ELEIN); [13]) | Efficacy (Avena fatua (AVEFA); [16]) | Efficacy (Avena fatua (AVEFA); [17]) | Efficacy [4, 11] | Efficacy [4, 12] | Efficacy (Setaria viridis (SETVI); [11]) | Efficacy (Setaria viridis (SETVI); [12]) | Efficacy (Setaria viridis (SETVI); [13]) | Efficacy [5, 17] | Efficacy [5, 19] | Efficacy (Bromus sterilis (BROST); g of a.i./ha: A1-13 2.5, mesosulfuron-methyl 2.5) | Efficacy (Bromus sterilis (BROST); g of a.i./ha: A1-13 2.5, mesosulfuron-methyl 10) | Efficacy (Kochia scoparia (KCHSC); [11]) | Efficacy (Kochia scoparia (KCHSC); [9]) | Efficacy (Kochia scoparia (KCHSC); [10]) | Efficacy (Kochia scoparia (KCHSC); [13]) | Efficacy (Kochia scoparia (KCHSC); [14])
30%: Efficacy (Phalaris minor (PHAMI); [21]) | Efficacy (Phalaris minor (PHAMI); [15]) | Efficacy (Phalaris minor (PHAMI); 14 days after application, g of a.i./ha: A1-13 2.5, indaziflam 40) | Efficacy (Phalaris minor (PHAMI); 14 days after application, g of a.i./ha: A1-13 10, indaziflam 40) | Efficacy ([6]; 2.5 g of a.i./ha) | Efficacy [6, 7]
5%: Efficacy ([3]; 21 days after application, g of a.i./ha: A1-13 10, indaziflam 10) | Efficacy [3, 19] | Efficacy (Bromus sterilis (BROST); [20]) | Efficacy (Bromus sterilis (BROST); g of a.i./ha: A1-13 10, mesosulfuron-methyl 10)
50%: Efficacy (Galium aparine (GALAP); 10 g of a.i./ha) | Efficacy (Galium aparine (GALAP); g of a.i./ha: A1-13 10, indaziflam 40)
20%: Efficacy (Eleusine indica (ELEIN); [9]) | Efficacy (Phalaris minor (PHAMI); [18]) | Efficacy (Phalaris minor (PHAMI); [19]) | Efficacy (Solanum nigrum (SOLNI); [9]) | Efficacy (Poa annua (POAAN); [21]) | Efficacy against POAAN (Poa annua (POAAN); [8])
40%: Efficacy (Galium aparine (GALAP); [7]) | Efficacy ([6]; 10 g of a.i./ha) | Efficacy [6, 20] | Efficacy (Poa annua (POAAN); [15])
15%: Efficacy (Phalaris minor (PHAMI); [16]) | Efficacy (Phalaris minor (PHAMI); 21 days after application, g of a.i./ha: A1-13 2.5, mesosulfuron-methyl 2.5) | Efficacy (Phalaris minor (PHAMI); [17])
35%: Efficacy (Avena fatua (AVEFA); [15])
60%: Efficacy against GALAP (Galium aparine (GALAP); [8])

CCOC(=O)[C@@H](C)Oc1ccc(Oc2nc3ccc(Cl)cc3o2)cc1 [fenoxaprop-P-ethyl]
10%: Efficacy (DIGSA; [24])
30%: Efficacy (DIGSA; [22])
0%: Efficacy [1, 22] | Efficacy [1, 23] | Efficacy [4, 22] | Efficacy [4, 23] | Efficacy [4, 24] | Efficacy [4, 25] | Efficacy (Solanum nigrum (SOLNI); [22]) | Efficacy (Solanum nigrum (SOLNI); [23]) | Efficacy (Solanum nigrum (SOLNI); [24]) | Efficacy (Solanum nigrum (SOLNI); [25]) | Efficacy (Kochia scoparia (KCHSC); [27]) | Efficacy (Kochia scoparia (KCHSC); [28]) | Efficacy (Kochia scoparia (KCHSC); [26])
80%: Efficacy (Setaria viridis (SETVI); [26])

CSc1nnc(C(C)(C)C)c(=O)n1N [metribuzin]
20%: Efficacy [1, 22] | Efficacy (DIGSA; [23]) | pest or weed control at 20 g/ha (Eleusine indica (ELEIN); Eleusine indica, post-emergence, 336 h; 14 days after application, 20 g of a.i./ha) | Efficacy [4, 24] | Efficacy [4, 25] | Efficacy (Kochia scoparia (KCHSC); [27]) | Efficacy (Kochia scoparia (KCHSC); [28])
30%: Efficacy [1, 23] | Efficacy [2, 28] | Efficacy [4, 22] | Efficacy [4, 23] | Efficacy (Setaria viridis (SETVI); [28])
10%: Efficacy [1, 25] | Efficacy [2, 27] | pest or weed control at 5 g/ha (Eleusine indica (ELEIN); Eleusine indica, post-emergence, 336 h; 14 days after application, 5 g of a.i./ha) | Efficacy (Setaria viridis (SETVI); [27]) | Efficacy (Kochia scoparia (KCHSC); [26])
0%: Efficacy [1, 24] | Efficacy [2, 29] | Efficacy [2, 26] | Efficacy (DIGSA; [22]) | pest or weed control at 5 g/ha (Eleusine indica (ELEIN); Eleusine indica, post-emergence, 504 h; 21 days after application; 5 g of a.i./ha) | pest or weed control at 20 g/ha (Eleusine indica (ELEIN); Eleusine indica, post-emergence, 504 h; 21 days after application; 20 g of a.i./ha) | Efficacy (Setaria viridis (SETVI); [29]) | Efficacy (Setaria viridis (SETVI); [26]) | Efficacy (Solanum nigrum (SOLNI); [22]) | Efficacy (Solanum nigrum (SOLNI); [23]) | Efficacy (Solanum nigrum (SOLNI); [24]) | Efficacy (Solanum nigrum (SOLNI); [25]) | Efficacy (Kochia scoparia (KCHSC); [29])

CCS(=O)(=O)c1c(C(F)(F)F)ccc(C(=O)Nc2nnc(C)o2)c1Cl [A1-7]
15%: Efficacy (Avena fatua (AVEFA); [33])
30%: Efficacy [1, 30] | Efficacy (Setaria viridis (SETVI); [35])
10%: Efficacy (DIGSA; [32]) | Efficacy [4, 35] | Efficacy [5, 33] | Efficacy [5, 34] | Efficacy ([5]; 21 days after application, g of a.i./ha: A1-7 10, saflufenacil 2) | Efficacy ([5]; 21 days after application, g of a.i./ha: A1-7 10, saflufenacil 8) | Efficacy (Solanum nigrum (SOLNI); [30]) | Efficacy (Solanum nigrum (SOLNI); [32]) | Efficacy (Kochia scoparia (KCHSC); [35])
5%: Efficacy (Bromus sterilis (BROST); g of a.i./ha: A1-7 10, saflufenacil 8)
50%: Efficacy [4, 31]
0%: Efficacy [3, 33] | Efficacy [3, 34] | Efficacy [4, 30] | Efficacy ([5]; 21 days after application, g of a.i./ha: A1-7 2.5, saflufenacil 2) | Efficacy ([5]; 21 days after application, g of a.i./ha: A1-7 2.5, saflufenacil 8) | Efficacy (Solanum nigrum (SOLNI); [35]) | Efficacy (Kochia scoparia (KCHSC); [30])
25%: Efficacy ([5]; 14 days after application, g of a.i./ha: A1-7 10, saflufenacil 2) | Efficacy ([5]; 14 days after application, g of a.i./ha: A1-7 10, saflufenacil 8)
75%: Efficacy (Setaria viridis (SETVI); [32])
20%: Efficacy (DIGSA; [31]) | Efficacy [4, 32] | Efficacy (Solanum nigrum (SOLNI); [31])

Reference: US10111435B2, “Herbicidal compositions containing N-(1,3,4-oxadiazol-2-yl)-aryl carboxylic acid amides” (BAYER CROPSCIENCE AKTIENGESELLSCHAFT, priority 2013, dated 2018)
